# According to ChEMBL document CHEMBL2074501, “Inhibition of P-glycoprotein by newer antidepressants” (J Pharmacol Exp Ther, 2003):
# Target: ATP-dependent translocase ABCB1 (Homo sapiens, UniProt P08183)
# Experiment: TP_TRANSPORTER: cell accumulation of calcein in L-MDR1 cells
# Assay type: functional, cell-based
# Conditions: not given
# ATP-dependent translocase ABCB1, sequence (P08183 whole entry): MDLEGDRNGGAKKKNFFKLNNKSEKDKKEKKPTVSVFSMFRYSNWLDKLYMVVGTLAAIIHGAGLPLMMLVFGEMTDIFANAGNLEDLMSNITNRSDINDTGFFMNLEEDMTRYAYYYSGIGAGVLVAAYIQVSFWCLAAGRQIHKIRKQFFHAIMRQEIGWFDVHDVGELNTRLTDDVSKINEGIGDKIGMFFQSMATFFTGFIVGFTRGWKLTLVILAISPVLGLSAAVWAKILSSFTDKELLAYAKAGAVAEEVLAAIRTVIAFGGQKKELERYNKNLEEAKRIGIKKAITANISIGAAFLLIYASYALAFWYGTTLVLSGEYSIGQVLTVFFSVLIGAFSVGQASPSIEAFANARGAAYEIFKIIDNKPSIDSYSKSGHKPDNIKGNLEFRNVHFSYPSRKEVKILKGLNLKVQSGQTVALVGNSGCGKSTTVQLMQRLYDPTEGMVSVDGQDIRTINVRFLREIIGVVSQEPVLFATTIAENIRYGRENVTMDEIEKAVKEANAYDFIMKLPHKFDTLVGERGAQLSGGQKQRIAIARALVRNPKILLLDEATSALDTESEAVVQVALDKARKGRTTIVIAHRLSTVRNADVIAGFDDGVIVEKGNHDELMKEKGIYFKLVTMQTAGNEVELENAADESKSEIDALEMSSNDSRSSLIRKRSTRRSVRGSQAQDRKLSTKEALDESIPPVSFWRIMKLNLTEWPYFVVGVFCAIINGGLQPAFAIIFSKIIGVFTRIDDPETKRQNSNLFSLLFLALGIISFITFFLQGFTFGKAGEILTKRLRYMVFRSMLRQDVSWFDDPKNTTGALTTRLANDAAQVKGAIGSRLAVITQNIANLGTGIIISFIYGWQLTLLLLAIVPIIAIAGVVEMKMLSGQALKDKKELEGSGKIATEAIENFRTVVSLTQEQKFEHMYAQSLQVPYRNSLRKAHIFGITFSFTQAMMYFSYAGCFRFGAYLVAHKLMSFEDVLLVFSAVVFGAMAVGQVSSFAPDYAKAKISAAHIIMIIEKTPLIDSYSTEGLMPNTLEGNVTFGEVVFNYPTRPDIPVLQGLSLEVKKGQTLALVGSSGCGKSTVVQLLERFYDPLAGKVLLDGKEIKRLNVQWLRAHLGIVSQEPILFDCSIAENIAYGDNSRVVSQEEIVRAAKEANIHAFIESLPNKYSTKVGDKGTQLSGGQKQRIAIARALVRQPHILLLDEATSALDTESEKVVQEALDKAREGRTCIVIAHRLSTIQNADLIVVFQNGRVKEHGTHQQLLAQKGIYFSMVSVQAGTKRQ
row,IC50,SMILES
1,29.8 µM,Fc1ccc([C@@H]2CCNC[C@H]2COc2ccc3c(c2)OCO3)cc1 [PAROXETINE]
2,31.8 µM,CN[C@H]1CC[C@@H](c2ccc(Cl)c(Cl)c2)c2ccccc21 [SERTRALINE]

# Same assay, conditions: pig, l-mdr1
row,Activity,SMILES
1,inhibitor [+],C/C=C/C[C@@H](C)C(=O)[C@H]1C(=O)N[C@@H](C(C)C)C(=O)N(C)CC(=O)N(C)[C@@H](CC(C)C)C(=O)N[C@@H](C(C)C)C(=O)N(C)[C@@H](CC(C)C)C(=O)N[C@@H](C)C(=O)N[C@H](C)C(=O)N(C)[C@@H](CC(C)C)C(=O)N(C)[C@@H](CC(C)C)C(=O)N(C)[C@@H](C(C)C)C(=O)N1C
2,inhibitor [+],CN(C)CCCC1(c2ccc(F)cc2)OCc2cc(C#N)ccc21 (configuration not stated) [CITALOPRAM]
3,inhibitor [+],COCCCC/C(=N\OCCN)c1ccc(C(F)(F)F)cc1 [FLUVOXAMINE]
4,inhibitor [+],CNCC(c1ccc(OC)cc1)C1(O)CCCCC1 (configuration not stated) [N-DESMETHYLVENLAFAXINE]

# Second part, the molecule before the results:
row,SMILES,Activity
1,N[C@H]1CC[C@@H](c2ccc(Cl)c(Cl)c2)c2ccccc21,inhibitor [+]
2,CNCCCC1(c2ccc(F)cc2)OCc2cc(C#N)ccc21 (configuration not stated) [DESMETHYLCITALOPRAM],inhibitor [+]
3,CN(C)CC(c1ccc(O)cc1)C1(O)CCCCC1 (configuration not stated) [DESVENLAFAXINE],is not an inhibitor [-]
4,NCCC(Oc1ccc(C(F)(F)F)cc1)c1ccccc1 (configuration not stated) [NORFLUOXETINE],inhibitor [+]
5,COc1cc(OC[C@@H]2CNCC[C@H]2c2ccc(F)cc2)ccc1O [Paroxetine-M],inhibitor [+]
6,COc1ccc(C(CN(C)C)C2(O)CCCCC2)cc1 (configuration not stated) [VENLAFAXINE],inhibitor [+]
